# Data from US8916702B2 (priority 2012, dated 2014).
# Read-outs that look alike come from different tables or passages of the source.
# System: HCV pseudoparticles (genotype 1a HCV E1 and E2 envelope, H77C isolate)
# Assay: microbe, parasite or virus in culture
# Format: cell-based
# Conditions: Hepatitis C virus
# [1] = Huh-7, read-out: Activity (EC50 class), HCV pseudoparticles (genotype 1a, H77C) in Huh7 cells, EC50 expressed as class A/B
# [2] = Huh-7, 48 h, HCV pseudoparticles (genotype 1a, H77C) in Huh7 cells, average of duplicate, luciferase 2 days after infection
# [3] = Huh-7, 48 h, HCV pseudoparticle infection of Huh7 cells, luciferase 2 days after infection, average of duplicates
# [4] = Huh-7, 48 h, read-out: Activity (EC50 class), HCV pseudoparticle infection of Huh7 cells, luciferase 2 days after infection, EC50 expressed as class A/B
# [5] = Huh-7, 48 h, read-out: Activity (EC50 class), HCV pseudoparticles, Huh7 cells, luciferase 2 days after infection, average of duplicates
Compound,EC50 [1],EC50 [4],also measured
CC(C)(CNC(=O)C(=O)Nc1ccc2ncsc2c1)CNC(=O)c1ccc(Nc2nc(NC3(c4ccc(Cl)cc4)CC3)nc(OCC(F)(F)F)n2)cc1 [Compound 3340],0.01 to 10 nM,–,–
Cc1cc(NC(=O)C(=O)NCC(C)(C)CNC(=O)c2ccc(Nc3nc(NC4(c5ccc(Cl)cc5)CC4)nc(OCC(F)(F)F)n3)cc2)sn1 [Compound 3010],0.01 to 10 nM,–,EC50 [2]: 0.014 nM
COC(=O)[C@H](CCNC(=O)C(=O)NCCc1ccc(OC)cc1)NC(=O)c1ccc(Nc2nc(NC3(c4ccc(Cl)cc4)CC3)nc(OCC(F)(F)F)n2)cc1 [Compound 1310],–,0.01 to 10 nM,EC50 [3]: 0.62 nM
CC(C)(CNC(=O)C(=O)Nc1ccc(-n2cccn2)cc1)CNC(=O)c1ccc(Nc2nc(NC3(c4ccc(Cl)cc4)CC3)nc(OCC(F)(F)F)n2)cc1 [Compound 3795],–,–,EC50 [5]: 0.01 to 10 nM
CC(C)(CNC(=O)C(=O)Nc1ccc(OC(F)F)cc1)CNC(=O)c1ccc(Nc2nc(NC3(c4ccc(Cl)cc4)CC3)nc(OCC(F)(F)F)n2)cc1F [Compound 3562],0.01 to 10 nM,–,EC50 [2]: 0.018 nM
CC(C)(C)c1cccc(NC(=O)C(=O)NC[C@H](NC(=O)c2ccc(Nc3nc(NC4(c5ccc(Cl)cc5)CC4)nc(OCC(F)(F)F)n3)cc2)C(=O)O)c1 [Compound 3760],–,–,EC50 [5]: 0.01 to 10 nM
CCCNc1ccc(NC(=O)C(=O)NCC[C@H](NC(=O)c2ccc(Nc3nc(NC4(c5ccc(Cl)cc5)CC4)nc(OCC(F)(F)F)n3)cc2)C(=O)O)cn1 [Compound 3657],–,–,EC50 [5]: 0.01 to 10 nM
COC(=O)[C@H](CNC(=O)C(=O)Nc1ccc(OC(F)(F)F)cc1)NC(=O)c1ccc(Nc2nc(NC3(c4ccc(Cl)cc4)CC3)nc(OCC(F)(F)F)n2)cc1 [Compound 3214],0.01 to 10 nM,–,–
CC(C)(CNC(=O)C(=O)Nc1cccc(C(=O)c2cccc(N)c2)c1)CNC(=O)c1ccc(Nc2nc(NC3(c4ccc(Cl)cc4)CC3)nc(OCC(F)(F)F)n2)cc1 [Compound 3400],0.01 to 10 nM,–,–
COC(=O)[C@H](CCNC(=O)C(=O)Nc1ccc(-n2ccnc2)cc1)NC(=O)c1ccc(Nc2nc(NC3(c4ccc(Cl)cc4)CC3)nc(OCC(F)(F)F)n2)cc1 [Compound 3300],10 to 1000 nM,–,–
CC(C)(C)c1ccc(NC(=O)C(=O)NCC[C@H](NC(=O)c2ccc(Nc3nc(NC4(c5ccc(Cl)cc5)CC4)nc(OCC(F)(F)F)n3)cc2)C(=O)O)cc1 [Compound 3549],0.01 to 10 nM,–,–
COC(=O)[C@H](CNC(=O)C(=O)NCc1ccc(F)c(F)c1)NC(=O)c1ccc(Nc2nc(NC3(c4ccc(Cl)cc4)CC3)nc(OCC(F)(F)F)n2)cc1 [Compound 1136],–,0.01 to 10 nM,–
O=C(NCCCCNC(=O)c1ccc(Nc2nc(NC3(c4ccc(Cl)cc4)CC3)nc(OCC(F)(F)F)n2)cc1)C(=O)N1CCc2ccccc2C1 [Compound 3402],0.01 to 10 nM,–,EC50 [2]: 0.2 nM
Cc1ccc(NC(=O)C(=O)NCC(C)(C)CNC(=O)c2ccc(Nc3nc(NC4(c5ccc(Cl)cc5)CC4)nc(OCc4ccc(C(C)(C)C)cc4)n3)cc2)cc1 [Compound 3841],–,–,EC50 [5]: 0.01 to 10 nM
CC(C)(C)OC(=O)N1CCC(NC(=O)C(=O)NC[C@H](NC(=O)c2ccc(Nc3nc(NC4(c5ccc(Cl)cc5)CC4)nc(OCC(F)(F)F)n3)cc2)C(=O)O)CC1 [Compound 1079],–,0.01 to 10 nM,–
COc1ccc2nc(NC(=O)C(=O)NCC(C)(C)CNC(=O)c3ccc(Nc4nc(NC5(c6ccc(Cl)cc6)CC5)nc(OCC(F)(F)F)n4)cc3)sc2c1 [Compound 3816],–,–,EC50 [5]: 0.01 to 10 nM
CC(CNC(=O)C(=O)NCC[C@H](NC(=O)c1ccc(Nc2nc(NC3(c4ccc(Cl)cc4)CC3)nc(OCC(F)(F)F)n2)cc1)C(=O)O)c1ccccc1 (stereo partly shown) [Compound 1327],–,0.01 to 10 nM,–
O=C(NC[C@H](NC(=O)c1ccc(Nc2nc(NC3(c4ccc(Cl)cc4)CC3)nc(OCC(F)(F)F)n2)cc1)C(=O)Cl)C(=O)Nc1ccc(OCCN2CCCCC2)nc1 [Compound 3791],–,–,EC50 [5]: 0.01 to 10 nM

Compound,EC50 [1],EC50 [4],also measured
CC(C)(C)OC(=O)NC1CCC(CNC(=O)C(=O)NCC[C@H](NC(=O)c2ccc(Nc3nc(NC4(c5ccc(Cl)cc5)CC4)nc(OCC(F)(F)F)n3)cc2)C(=O)O)CC1 (stereo partly shown) [Compound 1210],–,0.01 to 10 nM,–
COc1cccc(CCNC(=O)C(=O)NC[C@H](NC(=O)c2ccc(Nc3nc(NC4(c5ccc(Cl)cc5)CC4)nc(OCC(F)(F)F)n3)cc2)C(=O)O)c1 [Compound 1398],–,0.01 to 10 nM,EC50 [3]: 2.19 nM
CC(C)(CNC(=O)C(=O)Nc1nc2c(s1)CCCC2)CNC(=O)c1ccc(Nc2nc(NC3(c4ccc(Cl)cc4)CC3)nc(OCC(F)(F)F)n2)cc1 [Compound 3350],0.01 to 10 nM,–,–
COC(=O)[C@H](CNC(=O)C(=O)Nn1cnnc1)NC(=O)c1ccc(Nc2nc(NC3(c4ccc(Cl)cc4)CC3)nc(OCC(F)(F)F)n2)cc1 [Compound 1243],–,10 to 1000 nM,–
COC(=O)[C@H](CCNC(=O)C(=O)Nc1ccc(F)cc1F)NC(=O)c1ccc(Nc2nc(NC3(c4ccc(Cl)cc4)CC3)nc(OCC(F)(F)F)n2)cc1 [Compound 1501],–,0.01 to 10 nM,–
O=C(NC[C@H](NC(=O)c1ccc(Nc2nc(NC3(c4ccc(Cl)cc4)CC3)nc(OCC(F)(F)F)n2)cc1)C(=O)O)C(=O)Nc1cccc(Oc2ccccc2)c1 [Compound 3750],–,–,EC50 [5]: 0.01 to 10 nM
CC(C)(CNC(=O)C(=O)Nc1ccccc1N1CCCCC1)CNC(=O)c1ccc(Nc2nc(NC3(c4ccc(Cl)cc4)CC3)nc(OCC(F)(F)F)n2)cc1 [Compound 3016],0.01 to 10 nM,–,–
COC(=O)[C@H](CCNC(=O)C(=O)NC(c1ccc(OC)cc1)C1CC1)NC(=O)c1ccc(Nc2nc(NC3(c4ccc(Cl)cc4)CC3)nc(OCC(F)(F)F)n2)cc1 (stereo partly shown) [Compound 1418],–,0.01 to 10 nM,EC50 [3]: 0.28 nM
CC(C)(CNC(=O)C(=O)Nc1ccc(-c2ccc(F)cc2)cc1)CNC(=O)c1ccc(Nc2nc(NC3(c4ccc(Cl)cc4)CC3)nc(OCC(F)(F)F)n2)cc1 [Compound 1569],–,0.01 to 10 nM,–
O=C(NCC[C@H](NC(=O)c1ccc(Nc2nc(NC3(c4ccc(Cl)cc4)CC3)nc(OCC(F)(F)F)n2)cc1)C(=O)O)C(=O)NCC1CCCCCC1 [Compound 1207],–,0.01 to 10 nM,–
COC(=O)[C@H](CNC(=O)C(=O)NCc1ccc(F)cc1)NC(=O)c1ccc(Nc2nc(NC3(c4ccc(Cl)cc4)CC3)nc(OCC(F)(F)F)n2)cc1 [Compound 1133],–,0.01 to 10 nM,EC50 [3]: 1.4 nM
COC(=O)[C@H](CCNC(=O)C(=O)Nc1ccc(CCO)cc1)NC(=O)c1ccc(Nc2nc(NC3(c4ccc(Cl)cc4)CC3)nc(OCC(F)(F)F)n2)cc1 [Compound 3218],0.01 to 10 nM,–,–
COC(=O)[C@H](CCNC(=O)C(=O)NC1(Cc2ccccc2)CC1)NC(=O)c1ccc(Nc2nc(NC3(c4ccc(Cl)cc4)CC3)nc(OCC(F)(F)F)n2)cc1 [Compound 1325],–,0.01 to 10 nM,–
C#Cc1ccc(NC(=O)C(=O)NC[C@H](NC(=O)c2ccc(Nc3nc(NC4(c5ccc(Cl)cc5)CC4)nc(OCC(F)(F)F)n3)cc2)C(=O)OC)cc1 [Compound 3100],0.01 to 10 nM,–,EC50 [2]: 0.27 nM
Cc1nccn1Cc1ccc(NC(=O)C(=O)NC[C@H](NC(=O)c2ccc(Nc3nc(NC4(c5ccc(Cl)cc5)CC4)nc(OCC(F)(F)F)n3)cc2)C(=O)O)cc1 [Compound 3287],0.01 to 10 nM,–,–
Cc1cc(NC(=O)C(=O)N2CCCC(CNC(=O)c3ccc(Nc4nc(NC5(c6ccc(Cl)cc6)CC5)nc(OCC(F)(F)F)n4)cc3)C2)no1 (stereo not shown) [Compound 3486],0.01 to 10 nM,–,EC50 [2]: 0.32 nM
Cc1ccc(NC(=O)C(=O)N(C)CCCN(C)C(=O)c2ccc(Nc3nc(NC4(c5ccc(Cl)cc5)CC4)nc(OCC(F)(F)F)n3)cc2)cc1 [Compound 3406],0.01 to 10 nM,–,EC50 [2]: 1.91 nM
COC(=O)[C@H](CNC(=O)C(=O)Nc1ccc(-n2ccnc2)cc1)NC(=O)c1ccc(Nc2nc(NC3(c4ccc(Cl)cc4)CC3)nc(OCC(F)(F)F)n2)cc1 [Compound 3183],0.01 to 10 nM,–,–
